Common to all, as to assay type: biochemical
In test [1] the target is T1, human macrophage elastase (HME/hMMP-12) (Homo sapiens, UniProt P39900).
T1 construct: purchased R&D Systems 917-MP
The experiment in a line: In vitro HME inhibition test (standard or high-sensitivity). The following applies: in some cases mean values, rounded to two significant figures. In a few lines:
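Autoactivated HME (0.5 nM; high-sensitivity format 0.05 nM, ~16 h) with 5 μM quenched Mca-PLGLEEA-Dap(Dnp)-NH2 substrate in HEPES pH 7.4, NaCl, CaCl2, ZnCl2, EDTA, Brij buffer, 2 h at 37° C. Fluorescence at ex 323/em 393 nm; IC50 from signal versus concentration.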

In the next test the target is T2, MMP-1 (Homo sapiens, UniProt P03956).
T2 construct: purchased R&D Systems 901-MP
T2 sequence (P03956 100-469): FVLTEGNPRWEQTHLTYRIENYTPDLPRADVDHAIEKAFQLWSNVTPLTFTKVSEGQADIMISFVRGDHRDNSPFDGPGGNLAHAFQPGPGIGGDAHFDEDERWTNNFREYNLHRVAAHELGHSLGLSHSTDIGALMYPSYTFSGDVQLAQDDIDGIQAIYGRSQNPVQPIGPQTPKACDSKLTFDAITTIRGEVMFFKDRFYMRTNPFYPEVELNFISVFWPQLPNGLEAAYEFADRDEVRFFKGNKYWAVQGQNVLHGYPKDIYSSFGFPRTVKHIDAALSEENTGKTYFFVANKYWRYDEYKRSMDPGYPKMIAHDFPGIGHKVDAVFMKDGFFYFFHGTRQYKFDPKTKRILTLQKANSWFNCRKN
The experiment in a line: In vitro MMP-1 inhibition test. The following applies: human MMP-1. An outline of the steps:
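Recombinant enzyme was APMA-activated and used at e.g. 2 nM final in 50 mM Tris/HCl pH 7.5, 10 mM CaCl2, 150 mM NaCl, 0.05% Brij-35. Reaction was started with quenched Mca-Pro-Leu-Gly-Leu-Dpa(Dnp)-Ala-Arg-NH2 (e.g. 10 μM final), and fluorescence (ex 320/em 410 nm) was followed e.g. over 120 min at 32 °C. IC50 is the concentration giving 50% signal.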

The next test has as its target T3, MMP-10 (Homo sapiens, UniProt P09238).
T3 construct: purchased R&D Systems 910-MP
The experiment in a line: In vitro MMP-10 inhibition test. The following applies: human MMP-10. In a few lines:
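APMA-activated recombinant MMP-10 (e.g. 2 nM final) with compound in Tris/HCl pH 7.5, CaCl2, NaCl, Brij-35 buffer; reaction started with quenched Mca/Dnp peptide substrate (e.g. 10 μM final). Fluorescence (ex 320/em 410 nm) followed e.g. 120 min at 32 °C; IC50 at 50% signal.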

A further test deals with T4, MMP-16 (Homo sapiens, UniProt P51512).
T4 construct: purchased R&D Systems 1785-MP
T4 sequence (P51512 120-564 limits assumed): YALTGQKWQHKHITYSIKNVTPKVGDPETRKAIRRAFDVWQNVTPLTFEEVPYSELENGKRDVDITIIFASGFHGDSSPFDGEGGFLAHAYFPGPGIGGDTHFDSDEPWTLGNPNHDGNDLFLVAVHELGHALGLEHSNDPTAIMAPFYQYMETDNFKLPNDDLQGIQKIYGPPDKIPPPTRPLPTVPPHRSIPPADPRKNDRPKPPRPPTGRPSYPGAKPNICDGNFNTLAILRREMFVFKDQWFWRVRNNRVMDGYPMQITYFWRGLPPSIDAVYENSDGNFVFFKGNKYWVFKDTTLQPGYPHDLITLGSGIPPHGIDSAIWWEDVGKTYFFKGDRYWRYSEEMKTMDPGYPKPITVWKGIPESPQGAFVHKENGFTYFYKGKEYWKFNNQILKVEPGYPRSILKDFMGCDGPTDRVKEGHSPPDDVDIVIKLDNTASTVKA
Kind of test: In vitro MMP-16 inhibition test. The following applies: human MMP-16. An outline of the steps:
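Furin-activated recombinant MMP-16 (e.g. 1 nM final) with compound (e.g. 1 nM–30 μM, DMSO) in 50 mM Tris/HCl pH 7.5, 10 mM CaCl2, 150 mM NaCl, 0.05% Brij-35. Reaction started with quenched Mca-Lys-Pro-Leu-Gly-Leu-Dpa(Dnp)-Ala-Arg-NH2 (e.g. 5 μM) and read by fluorescence (ex 320/em 410 nm), e.g. over 120 min at 32 °C. IC50 taken at 50% signal.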

T1 sequence (P39900 106-470): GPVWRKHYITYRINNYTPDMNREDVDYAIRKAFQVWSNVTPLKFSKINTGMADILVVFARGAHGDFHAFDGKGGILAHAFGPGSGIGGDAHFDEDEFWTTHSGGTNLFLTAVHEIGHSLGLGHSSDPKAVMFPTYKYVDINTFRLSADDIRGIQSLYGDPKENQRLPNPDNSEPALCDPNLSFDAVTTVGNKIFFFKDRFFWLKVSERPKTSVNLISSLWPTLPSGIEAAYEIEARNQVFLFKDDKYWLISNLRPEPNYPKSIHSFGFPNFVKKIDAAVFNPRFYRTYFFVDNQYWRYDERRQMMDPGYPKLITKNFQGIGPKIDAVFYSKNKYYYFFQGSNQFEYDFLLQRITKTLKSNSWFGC
T3 sequence (P09238 99-476): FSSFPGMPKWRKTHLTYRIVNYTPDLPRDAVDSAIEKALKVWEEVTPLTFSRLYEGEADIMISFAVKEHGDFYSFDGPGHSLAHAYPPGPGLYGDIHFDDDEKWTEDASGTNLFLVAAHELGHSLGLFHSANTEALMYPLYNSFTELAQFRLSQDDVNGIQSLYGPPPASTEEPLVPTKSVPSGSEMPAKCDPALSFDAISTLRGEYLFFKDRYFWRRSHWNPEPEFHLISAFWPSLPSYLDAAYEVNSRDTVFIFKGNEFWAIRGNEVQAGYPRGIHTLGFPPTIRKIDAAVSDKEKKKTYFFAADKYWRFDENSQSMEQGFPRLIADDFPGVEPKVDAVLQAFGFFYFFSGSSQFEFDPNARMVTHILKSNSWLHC

The term IC50 denotes the concentration at which inhibition is half-maximal. Low readings indicate higher potency, high ones lower potency. For `O=C(CC(CCn1nnc2ccc(C(F)(F)F)cc2c1=O)C(=O)O)c1noc2cc(OCc3ccccc3)ccc12` (racemic) [Example 154, (+/−)-4-[6-(Benzyloxy)-1,2-benzoxazol-3-yl]-4-oxo-2-{2-[4-oxo-6-(trifluoromethyl)-1,2,3-benzotriazin-3(4H)-yl]ethyl}butanoic acid], the IC50 in test [1] is 0.00075 µM; against MMP-1 it was over 40 µM; against MMP-10 it was 3.3 µM; on MMP-16 it was 13 µM.

Turning to `Cc1cccc(COc2ccc3oc(C(=O)CC(CCn4nnc5ccccc5c4=O)C(=O)O)cc3c2)c1` (racemic) [Example 51, (+/−)-4-{5-[(3-Methylbenzyl)oxy]-1-benzofur-2-yl}-4-oxo-2-[2-(4-oxo-1,2,3-benzotriazin-3(4H)-yl)ethyl]butanoic acid], the IC50 was 0.0041 µM in test [1], over 40 µM on MMP-1, 36 µM on MMP-10 and over 40 µM against MMP-16.

Take `CCCCCOc1ccc2c(C(=O)CC(CCn3nnc4ccccc4c3=O)C(=O)O)coc2c1` (racemic) [Example 89, (+/−)-4-Oxo-2-[2-(4-oxo-1,2,3-benzotriazin-3(4H)-yl)ethyl]-4-[6-(pentyloxy)-1-benzofur-3-yl]butanoic acid]: the IC50 in test [1] is 0.00035 µM; on MMP-1 it was over 40 µM; against MMP-10 it was 22 µM; on MMP-16, over 40 µM.

Consider `O=C(CC(CCn1nnc2ccccc2c1=O)C(=O)O)c1cc2cc(OCc3ccccc3)ccc2o1` (single isomer, unassigned; (+)) [Example 30, (+)-4-[5-(Benzyloxy)-1-benzofur-2-yl]-4-oxo-2-[2-(4-oxo-1,2,3-benzotriazin-3(4H)-yl)ethyl]butanoic acid], for which the IC50 in test [1] is 0.00099 µM; on MMP-1, over 40 µM; against MMP-10, 30 µM; against MMP-16, over 40 µM.

Values taken from patent publication US20170121315A1, “HETEROBICYCLICALLY SUBSTITUTED 4-OXOBUTANE ACID DERIVATIVES AND USE THEREOF” (priority 2014, published 2017).
